PubChem BioAssay AID200 (DTP/NCI, 2004)
Where “and” joins values, the source holds several entries; their conditions need not be identical. Equal entries are not always repeated. Inconclusive results and toxic doses are left out. *1 amine or outer side, *2 acyl side, *3 side chain or, on linkers, in order; H or OH if unused. Where a SMILES comes first, the peptide text is derived from it. [ ]: non-standard residue; d: D form. The star is where a group is joined. X3 = CCC(=O)CC1CC(C)CC(C(=O)[*:2])N1[*:1]; X2 = CCCCCCCCC(C)C(=O)*; Aib = CC(C)(N)C(=O)O; X4 = CC(CN(C)CCO)N*

Test system: B6C3F1 mice, B16 melanoma ip, median survival T/C
Test: NCI In Vivo Anticancer Drug Screen. Data for tumor model B16 Melanoma (intraperitoneal) in B6C3F1 mice
Details: endpoint: median survival time, higher = longer survival
How it was run: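 Transplantable tumor in mice; treated vs vehicle control groups; survival or tumor size measured; value = T/C ratio.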

[1] = dose: 50.0 mg/kg/injection, schedule: Q01DX009 (ip), vehicle: Klucel (hydroxypropylcellulose) (HPC)
[2] = dose: 100.0 mg/kg/injection, schedule: Q01DX009 (ip), vehicle: Klucel (hydroxypropylcellulose) (HPC)

C=C1C(O)C2(O)OCC34C(CC5C(C)=CC(=O)C(O)C5(C)C23)OC(=O)C(OC(=O)C(C)(O)CC)C14 (stereo unspecified)
T/C (dose: 0.13 mg/kg/injection, schedule: Q01DX009 (ip), vehicle: saline + alcohol): 89 % of control
T/C (dose: 0.25 mg/kg/injection, schedule: Q01DX009 (ip), vehicle: saline + alcohol): 110 % of control and 101 % of control
T/C (dose: 0.5 mg/kg/injection, schedule: Q01DX009 (ip), vehicle: saline + alcohol): 103 % of control
T/C (dose: 1.0 mg/kg/injection, schedule: Q01DX009 (ip), vehicle: saline + alcohol): 115 % of control

CNC(=O)OCc1c(COC(=O)NC)c(C)n(-c2ccc(OC)cc2)c1C
T/C (dose: 3.12 mg/kg/injection, schedule: Q01DX009 (ip), vehicle: Klucel (hydroxypropylcellulose) (HPC)): 112 % of control
T/C [1]: 111 % of control

CC(=O)/C(=C\c1ccc(Cl)c(Cl)c1)C(=O)CCN(C)C
T/C (dose: 12.5 mg/kg/injection, schedule: Q01DX009 (ip), vehicle: saline): 94 % of control
T/C (dose: 25.0 mg/kg/injection, schedule: Q01DX009 (ip), vehicle: saline): 93 % of control
T/C (dose: 50.0 mg/kg/injection, schedule: Q01DX009 (ip), vehicle: saline): 89 % of control

COC(=O)Nc1cn2ccc(Sc3ccccc3)cc2n1
T/C [1]: 122 % of control
T/C [2]: 101 % of control

C=C1C(O)C2(O)OCC34C(CC5C(C)=CC(=O)C(O)C5(C)C23)OC(=O)C(OC(=O)C/C=C/CCCCCCCC)C14 (stereo unspecified)
T/C (dose: 4.0 mg/kg/injection, schedule: Q01DX009 (ip), vehicle: saline + alcohol): 182 % of control
T/C (dose: 5.76 mg/kg/injection, schedule: Q01DX009 (ip), vehicle: saline + Tween-80 + alcohol): 160 % of control
T/C (dose: 8.0 mg/kg/injection, schedule: Q01DX009 (ip), vehicle: saline + alcohol): 182 % of control
T/C (dose: 9.6 mg/kg/injection, schedule: Q01DX009 (ip), vehicle: saline + Tween-80 + alcohol): 197 % of control
T/C (dose: 16.0 mg/kg/injection, schedule: Q01DX009 (ip), vehicle: saline + Tween-80 + alcohol): 176 % of control
T/C (dose: 16.0 mg/kg/injection, schedule: Q01DX009 (ip), vehicle: saline + alcohol): 192 % of control

COc1cc([C@@H]2c3cc4c(cc3[C@@H](OC3OC5CO[C@@H](c6cccs6)OC5C(O)C3O)[C@H]3COC(=O)[C@H]23)OCO4)cc(OC)c1O (stereo partly specified)
T/C (dose: 0.25 mg/kg/injection, schedule: Q01DX009 (ip), vehicle: saline): 110 % of control
T/C (dose: 0.5 mg/kg/injection, schedule: Q01DX009 (ip), vehicle: saline): 123 % of control
T/C (dose: 1.0 mg/kg/injection, schedule: Q01DX009 (ip), vehicle: saline): 122 % of control
T/C (dose: 4.0 mg/kg/injection, schedule: Q01DX009 (ip), vehicle: saline): 162 % of control

CCCCCCCCC(C)C(=O)N1CCCC1C(=O)N1C(CC(=O)CC)CC(C)CC1C(=O)NC(C)C(=O)NC(C)(C)C(=O)NC(C)(C)C(=O)NC(C(=O)NC(C)C(=O)NC(C)(C)C(=O)NC(C)(C)C(=O)NC(C)CN(C)CCO)C(C)CC (stereo unspecified) (X2-P[X3]A[Aib][Aib]IA[Aib][Aib]-X4; configuration not given here)
T/C (dose: 0.15 mg/kg/injection, schedule: Q01DX009 (ip), vehicle: Klucel (hydroxypropylcellulose) (HPC)): 98 % of control
T/C (dose: 0.31 mg/kg/injection, schedule: Q01DX009 (ip), vehicle: Klucel (hydroxypropylcellulose) (HPC)): 91 % of control
T/C (dose: 0.62 mg/kg/injection, schedule: Q01DX009 (ip), vehicle: Klucel (hydroxypropylcellulose) (HPC)): 97 % of control
T/C (dose: 1.25 mg/kg/injection, schedule: Q01DX009 (ip), vehicle: Klucel (hydroxypropylcellulose) (HPC)): 89 % of control
T/C (dose: 2.5 mg/kg/injection, schedule: Q01DX009 (ip), vehicle: Klucel (hydroxypropylcellulose) (HPC)): 92 % of control
T/C (dose: 5.0 mg/kg/injection, schedule: Q01DX009 (ip), vehicle: Klucel (hydroxypropylcellulose) (HPC)): 86 % of control

CC(/C=C/C1OC(=O)C=CC1C)=C\C(C)C/C=C/C(C)=C/C(C)C(=O)C(C)C(O)C(C)C/C(C)=C/C(=O)O (stereo unspecified)
T/C (dose: 12.5 micrograms/kg/injection, schedule: Q01DX009 (ip), vehicle: saline + alcohol): 170 % of control and 184 % of control
T/C (dose: 25.0 micrograms/kg/injection, schedule: Q01DX009 (ip), vehicle: saline + alcohol): 176 % of control and 224 % of control

CC(NC(=O)OCC1c2ccccc2-c2ccccc21)C(=O)O (stereo unspecified)
T/C [2]: 104 % of control
T/C (dose: 200.0 mg/kg/injection, schedule: Q01DX009 (ip), vehicle: Klucel (hydroxypropylcellulose) (HPC)): 101 % of control
T/C (dose: 400.0 mg/kg/injection, schedule: Q01DX009 (ip), vehicle: Klucel (hydroxypropylcellulose) (HPC)): 87 % of control

COc1cccc2c1C(=O)c1c(O)c3c(c(O)c1C2=O)C[C@H](O)C[C@@H]3OC1CC(N)C(O)C(C)O1 (stereo partly specified)
T/C (dose: 0.75 mg/kg/injection, schedule: Q01DX009 (ip), vehicle: saline): 150 % of control
T/C (dose: 0.75 mg/kg/injection, schedule: Q01DX009 (ip), vehicle: water): 159 % of control
T/C (dose: 1.5 mg/kg/injection, schedule: Q01DX009 (ip), vehicle: saline): 184 % of control
T/C (dose: 1.5 mg/kg/injection, schedule: Q01DX009 (ip), vehicle: water): 164 % of control
T/C (dose: 3.0 mg/kg/injection, schedule: Q01DX009 (ip), vehicle: saline): 175 % of control
T/C (dose: 3.0 mg/kg/injection, schedule: Q01DX009 (ip), vehicle: water): 192 % of control
T/C (dose: 6.0 mg/kg/injection, schedule: Q01DX009 (ip), vehicle: saline): 260 % of control
T/C (dose: 6.0 mg/kg/injection, schedule: Q01DX009 (ip), vehicle: water): 215 % of control
T/C (dose: 12.0 mg/kg/injection, schedule: Q01DX009 (ip), vehicle: saline): 346 % of control
T/C (dose: 12.0 mg/kg/injection, schedule: Q01DX009 (ip), vehicle: water): 320 % of control
T/C (dose: 24.0 mg/kg/injection, schedule: Q01DX009 (ip), vehicle: saline): 183 % of control

CC[C@@]1(O)C(=O)OCc2c1cc1n(c2=O)Cc2cc3ccccc3nc2-1
T/C (dose: 0.1 mg/kg/injection, schedule: Q01DX009 (ip), vehicle: other): 108 % of control
T/C (dose: 1.5 mg/kg/injection, schedule: Q01DX009 (ip), vehicle: saline with Tween-80): 174 % of control
T/C (dose: 3.0 mg/kg/injection, schedule: Q01DX009 (ip), vehicle: saline with Tween-80): 189 % of control

COC(=O)[C@@]12OC[C@]34[C@H]([C@@H](O)[C@@H]1O)[C@@]1(C)CC(=O)C(OC(=O)CC(=O)OC5=C(C)[C@@H]6C[C@H]7OC(=O)[C@H](OC(=O)/C=C(\C)C(C)C)[C@H]8[C@]9(C(=O)OC)OC[C@]78[C@H]([C@@H](O)[C@@H]9O)[C@@]6(C)CC5=O)=C(C)[C@@H]1C[C@H]3OC(=O)[C@H](OC(=O)/C=C(\C)C(C)C)[C@@H]24
T/C (dose: 1.5 mg/kg/injection, schedule: Q01DX009 (ip), vehicle: saline + Tween-80 + alcohol): 154 % of control

Oc1ccc2ccccc2c1N=Nc1ccc(Cl)cc1
T/C (dose: 50.0 mg/kg/injection, schedule: Q01DX009 (ip), vehicle: saline with Tween-80): 115 % of control and 118 % of control
T/C (dose: 100.0 mg/kg/injection, schedule: Q01DX009 (ip), vehicle: saline with Tween-80): 114 % of control and 103 % of control
T/C (dose: 200.0 mg/kg/injection, schedule: Q01DX009 (ip), vehicle: saline with Tween-80): 92 % of control and 101 % of control
T/C (dose: 400.0 mg/kg/injection, schedule: Q01DX009 (ip), vehicle: saline with Tween-80): 109 % of control

CCCCNc1nc(N)nc(Nc2ccc(Br)cc2)c1N=O
T/C [1]: 97 % of control
T/C [2]: 92 % of control

CCN(Cc1ccc(Cl)c(Cl)c1)c1ccc2nc(N)nc(N)c2c1C
T/C (dose: 3.12 mg/kg/injection, schedule: Q01DX009 (ip), vehicle: water): 112 % of control and 123 % of control
T/C (dose: 3.13 mg/kg/injection, schedule: Q01DX009 (ip), vehicle: distilled water + Tween-80): 120 % of control
T/C (dose: 6.25 mg/kg/injection, schedule: Q01DX009 (ip), vehicle: water): 124 % of control
T/C (dose: 12.5 mg/kg/injection, schedule: Q01DX009 (ip), vehicle: water): 92 % of control
T/C (dose: 25.0 mg/kg/injection, schedule: Q01DX009 (ip), vehicle: water): 150 % of control

COc1cccc2c1C(=O)c1c(O)c3c(c(O)c1C2=O)CC(O)(C(=O)CO)CC3OC1CC(N)C(O)C(C)O1 (stereo unspecified)
T/C (dose: 4.1 mg/kg/injection, schedule: Q01DX001 (ip), vehicle: other): 108 % of control
T/C (dose: 4.5 mg/kg/injection, schedule: Q01DX009 (ip), vehicle: water): 209 % of control
T/C (dose: 6.9 mg/kg/injection, schedule: Q01DX001 (ip), vehicle: other): 114 % of control
T/C (dose: 9.0 mg/kg/injection, schedule: Q01DX009 (ip), vehicle: water): 219 % of control
T/C (dose: 11.5 mg/kg/injection, schedule: Q01DX001 (ip), vehicle: other): 118 % of control
T/C (dose: 18.0 mg/kg/injection, schedule: Q01DX009 (ip), vehicle: water): 234 % of control
T/C (dose: 19.2 mg/kg/injection, schedule: Q01DX001 (ip), vehicle: other): 123 % of control
T/C (dose: 36.0 mg/kg/injection, schedule: Q01DX009 (ip), vehicle: water): 156 % of control
